Test results published in ChEMBL document CHEMBL5029156 (J Med Chem, 2021).

What was measured:
[1] = biological target: T1, Aldehyde oxidase (Homo sapiens, UniProt Q06278); experiment: Noncompetitive type inhibition of human AOX assessed as inhibitor dissociation constant by measuring slope of the double reciprocal plot using phthalazine as substrate by Michaelis-Menten analysis; details: read-out: Kis
T1 sequence (Q06278 whole entry): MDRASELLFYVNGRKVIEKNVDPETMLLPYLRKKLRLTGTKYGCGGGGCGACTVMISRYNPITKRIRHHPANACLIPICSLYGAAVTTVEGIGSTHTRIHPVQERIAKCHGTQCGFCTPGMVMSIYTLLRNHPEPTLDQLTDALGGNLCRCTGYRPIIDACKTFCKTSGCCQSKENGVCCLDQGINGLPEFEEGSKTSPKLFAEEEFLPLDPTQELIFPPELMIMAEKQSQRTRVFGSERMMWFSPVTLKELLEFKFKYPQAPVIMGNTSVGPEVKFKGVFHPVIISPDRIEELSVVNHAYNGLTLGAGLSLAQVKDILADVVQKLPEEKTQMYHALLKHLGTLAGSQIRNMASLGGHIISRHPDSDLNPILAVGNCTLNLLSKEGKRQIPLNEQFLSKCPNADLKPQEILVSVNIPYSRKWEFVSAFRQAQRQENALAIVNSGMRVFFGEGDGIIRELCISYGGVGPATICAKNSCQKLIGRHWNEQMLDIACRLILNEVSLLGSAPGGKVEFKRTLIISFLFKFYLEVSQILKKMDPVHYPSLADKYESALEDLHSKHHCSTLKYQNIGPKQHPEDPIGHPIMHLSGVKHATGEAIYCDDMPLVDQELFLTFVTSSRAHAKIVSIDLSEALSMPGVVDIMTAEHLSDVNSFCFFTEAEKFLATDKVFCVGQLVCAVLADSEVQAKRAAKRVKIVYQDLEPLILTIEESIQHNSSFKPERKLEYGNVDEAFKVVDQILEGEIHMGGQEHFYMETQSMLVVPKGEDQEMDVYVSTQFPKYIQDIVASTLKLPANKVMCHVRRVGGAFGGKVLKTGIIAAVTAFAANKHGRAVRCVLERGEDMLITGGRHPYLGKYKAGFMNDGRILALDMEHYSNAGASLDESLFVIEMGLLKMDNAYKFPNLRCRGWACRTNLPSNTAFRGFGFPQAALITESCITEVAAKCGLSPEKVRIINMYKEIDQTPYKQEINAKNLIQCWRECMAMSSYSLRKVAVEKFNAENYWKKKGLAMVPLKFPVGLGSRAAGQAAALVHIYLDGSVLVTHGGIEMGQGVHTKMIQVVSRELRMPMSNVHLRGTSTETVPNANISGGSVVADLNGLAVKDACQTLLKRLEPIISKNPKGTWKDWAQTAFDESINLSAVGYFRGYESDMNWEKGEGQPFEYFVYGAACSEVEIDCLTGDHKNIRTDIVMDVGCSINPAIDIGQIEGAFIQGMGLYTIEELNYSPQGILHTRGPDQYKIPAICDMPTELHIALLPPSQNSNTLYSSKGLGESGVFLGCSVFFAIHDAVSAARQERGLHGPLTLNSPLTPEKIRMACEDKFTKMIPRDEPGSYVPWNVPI

[2] = biological target: T1, Aldehyde oxidase; experiment: Noncompetitive type inhibition of human AOX assessed as inhibitor dissociation constant by measuring changes in intercept of the double reciprocal plot using phthalazine as substrate by Michaelis-Menten analysis; details: read-out: Kii
[3] = biological target: T1, Aldehyde oxidase; experiment: Mixed type inhibition of human AOX assessed as inhibitor dissociation constant by measuring changes in intercept of the double reciprocal plot using phenanthridine as substrate by Michaelis-Menten analysis; details: read-out: Kii
[4] = biological target: T1, Aldehyde oxidase; experiment: Mixed type inhibition of human AOX assessed as inhibitor dissociation constant by measuring changes in slope of the double reciprocal plot using phenanthridine as substrate by Michaelis-Menten analysis; details: read-out: Kis

| SMILES | Ki [1] [µM] | Ki [2] [µM] | Ki [3] [µM] | Ki [4] [µM] |
| --- | --- | --- | --- | --- |
| CSc1ccc2c(c1)N(CCC1CCCCN1C)c1ccccc1S2 (centres undefined) [THIORIDAZINE] | 1.3 | 1.3 | – | – |
| N=C(N)c1ccccc1 [BENZAMIDINE] | – | – | 1620 | 1240 |
